Holding throughout (format): binding
Assay [1] deals with T1, LXRα (Homo sapiens, UniProt Q13133).
T1 construct: gene NR1H3
T1 sequence (Q13133 1-447): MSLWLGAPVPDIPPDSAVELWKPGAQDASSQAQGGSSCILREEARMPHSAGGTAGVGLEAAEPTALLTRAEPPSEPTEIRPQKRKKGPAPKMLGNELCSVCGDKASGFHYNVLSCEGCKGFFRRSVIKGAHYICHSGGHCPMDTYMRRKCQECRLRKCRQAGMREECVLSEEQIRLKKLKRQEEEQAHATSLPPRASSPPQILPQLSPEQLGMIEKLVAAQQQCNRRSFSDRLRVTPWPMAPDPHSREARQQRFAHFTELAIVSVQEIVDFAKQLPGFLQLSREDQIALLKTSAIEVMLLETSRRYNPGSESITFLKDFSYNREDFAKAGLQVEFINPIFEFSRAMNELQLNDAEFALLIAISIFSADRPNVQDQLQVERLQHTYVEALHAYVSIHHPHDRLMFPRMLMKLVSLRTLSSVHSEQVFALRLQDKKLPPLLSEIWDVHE
In words: intrinsic aromatic fluorescence quenching (positive control), CD; LXRE reporter activation.

Assay [2] deals with T1, LXRα. In words: intrinsic aromatic fluorescence quenching; also displacement of BODIPY C16-CoA (Ki […]); CD.
Assay [3] deals with T1, LXRα. The description is as above. The source holds these as a separate data set.
For assay [4], the target named is T1, LXRα. In words: displacement of LXRα-bound BODIPY C16-CoA; CD change.
The target of assay [5] is T1, LXRα. The assay is described as follows: intrinsic aromatic fluorescence quenching; displacement Ki […]; LXRE reporter activation.
Assay [6] deals with T1, LXRα. In words: intrinsic aromatic fluorescence quenching; also displacement of BODIPY C16-CoA (Ki […]).
The target in assay [7] is T1, LXRα. The description is as above. This is another data set of the same source.

On to `C[C@H](CCCC(C)(C)O)[C@H]1CC[C@H]2[C@@H]3CC=C4C[C@@H](O)CC[C@]4(C)[C@H]3CC[C@]12C` [25-HC, 25-hydroxycholesterol], for which the “intrinsic aromatic fluorescence quenching (positive control), CD; LXRE reporter” value at LXRα [1] is “Binding with T-0901317 and 25-hydroxycholesterol (positive controls) yielded binding curves that were sharply saturable”.

Usually Kd stands for the equilibrium constant for the complex coming apart. Read a high Kd as weaker binding. Regarding `CCCCCCCC(=O)SCCNC(=O)CCNC(=O)[C@H](O)C(C)(C)COP(=O)(O)OP(=O)(O)OC[C@H]1O[C@@H](n2cnc3c(N)ncnc32)[C@H](O)[C@@H]1OP(=O)(O)O` [C8:0-CoA, Octanoyl-CoA], binding on LXRα [2] was put at a Kd of 15 ± 5 nM.

`CCCCCCCCCC(=O)O` [C10:0, Decanoic acid] had a Kd at LXRα [3] of 15 ± 6 nM.

The term Ki denotes the equilibrium dissociation constant of an inhibitor or competing ligand from its target. Lower therefore signals higher affinity. `CCCCCCCCCC(=O)SCCNC(=O)CCNC(=O)[C@H](O)C(C)(C)COP(=O)(O)OP(=O)(O)OC[C@H]1O[C@@H](n2cnc3c(N)ncnc32)[C@H](O)[C@@H]1OP(=O)(O)O` [C10:0-CoA, Decanoyl-CoA]: at LXRα [4], the Ki worked out at 7 ± 3 nM.

Take `CCCCCCCCCCCC(=O)O` [C12:0, Lauric acid]: the Kd at LXRα [5] amounted to 11 ± 4 nM.

As to `CCCCCCCCCCCC(=O)SCCNC(=O)CCNC(=O)[C@H](O)C(C)(C)COP(=O)(O)OP(=O)(O)OC[C@H]1O[C@@H](n2cnc3c(N)ncnc32)[C@H](O)[C@@H]1OP(=O)(O)O` [C12:0-CoA, Lauroyl-CoA], the Kd at LXRα [6] came to 18 ± 8 nM.

Take `CCCCCCCCCCCCCCCC(=O)SCCNC(=O)CCNC(=O)[C@H](O)C(C)(C)COP(=O)(O)OP(=O)(O)OC[C@H]1O[C@@H](n2cnc3c(N)ncnc32)[C@H](O)[C@@H]1OP(=O)(O)O` [C16:0-CoA, Palmitoyl-CoA]: the Kd on LXRα [7] came out at 14 ± 7 nM.
